These results are taken from patent US20240368174A1, “Antiviral Heterocyclic Compounds” (Enanta Pharmaceuticals, Inc., priority 2023, published 2024).

By EC50 is commonly meant the midpoint of the concentration-response curve. High values mean a less potent agent, low ones a more potent agent.

Structures are written as SMILES.

Test [1] has as its system HMPV clinical isolate A2 strain TN 94-49. The test is described as follows: HMPV antiviral assay, Method 1 (LLC-MK2 cells, ATP-Lite). It counts as cell-based. To be noted: human metapneumovirus, hMPV A2 TN/94-49, LLC-MK2 cells. In outline: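 LLC-MK2 cells (5,000/well) infected in suspension with HMPV A2 TN 94-49 at MOI 0.005 in serum-free OptiMEM with 2 μg/mL final TPCK-trypsin, compounds in duplicate from 2 μM top, 2.5-fold, 10 points. After 7 days at 37° C, cell health by ATP-Lite luminescence normalised to virus and cell controls; EC50 from four-parameter fit.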

Test [2] shares this test system. The test is described as follows: HMPV antiviral assay, Method 2 (LLC-MK2 cells with CP-100-356, ATP-Lite). It counts as cell-based. To be noted: human metapneumovirus; hMPV A2 TN/94-49, LLC-MK2 cells with CP-100-356, Method 2. In outline: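 LLC-MK2 rhesus kidney cells (5,000/well) infected in suspension with HMPV A2 TN 94-49 at MOI 0.16, in serum-free medium with final 2 μg/mL TPCK-trypsin and 2 μM CP-100-356. Compounds tested in duplicate from 200 nM, 2.5-fold, 10 points; 7 days at 37 °C. Cell health by ATP-Lite luminescence; EC50 by four-parameter fit.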

Take `COc1cc(C(=O)NC[C@@](O)(c2ccccc2)c2cc3c(c(-c4ccc(F)c(F)c4Cl)n2)OC[C@]3(C)C(N)=O)cc2cn(C(F)F)nc12` [Example 213]: the figures for the EC50 in test [1] and in test [2] were below 500 nM and below 200 nM, respectively.

`COc1cc(C(=O)NC[C@](O)(c2cc3c(c(-c4ccc5c(c4)OC(F)(F)O5)n2)OC[C@]3(C)C(N)=O)C2CC2)cc2cc(C)c(F)nc12` [Example 22]: the values for the 50% effective concentration (EC50) in test [1] and in test [2] were below 500 nM and below 200 nM, respectively.

As to `[2H]C([2H])([2H])NC(=O)[C@@]1(C)COc2c1cc([C@@](O)(CNC(=O)c1cc(OC)c3nn(C4CC4)cc3c1)c1ccccc1)nc2-c1cc(Cl)c(F)cc1F` [Example 140], the figures for the EC50 in test [1] and in test [2] were below 500 nM and below 200 nM, respectively.

Take `COc1cc(C(=O)NC[C@@](O)(c2ccc(F)cc2)c2cc3c(c(-c4ccc5c(c4Cl)OC(F)(F)O5)n2)OC[C@]3(C)C(N)=O)cc2cn(C3(F)CC3)nc12` [Example 263]: the EC50 was below 500 nM in test [1] and below 200 nM in test [2].

In the case of `C[C@]1(C(N)=O)COc2c1cc([C@@](O)(CNC(=O)c1cc(OC3CC3)c3nn(C4(F)CC4)cc3c1)c1ccccc1)nc2-c1cccc(Cl)c1Cl` [Example 266], the EC50 was below 500 nM in test [1] and below 200 nM in test [2].

On to `COc1cc(C(=O)NC[C@@](O)(c2ccccc2)c2cc3c(c(-c4ccc(F)c(Cl)c4Cl)n2)OC[C@]3(C)C(N)=O)cc2cc(Cl)cnc12` [Example 294], for which the EC50 was below 500 nM in test [1] and below 200 nM in test [2].

`COc1cc(C(=O)NC[C@@](O)(c2ccccc2)c2cc3c(c(-c4cc(Cl)c(F)cc4F)n2)OC[C@]3(C)C(N)=O)cc2oc(C3CC3)nc12` [Example 85]: the results for the EC50 in test [1] and in test [2] were below 500 nM and below 200 nM, respectively.

Turning to `COc1cc(C(=O)NC[C@@](O)(c2ccccc2)c2cc3c(c(-c4ccc(F)c(Cl)c4Cl)n2)OC[C@]3(C)C(N)=O)cc2cn(C(F)F)nc12` [Example 258], the EC50 in test [1] was below 500 nM; in test [2], below 200 nM.

As to `Cc1cnc2c(OC3CC3)cc(C(=O)NC[C@@](O)(c3ccccc3)c3cc4c(c(-c5cc(Cl)c(F)cc5F)n3)OC[C@]4(C)C(N)=O)cc2c1` [Example 182], the EC50 in test [1] was below 500 nM; in test [2], below 200 nM.

In the case of `Cc1cnc2c(OC(F)F)cc(C(=O)NC[C@@](O)(c3ccccc3)c3cc4c(c(-c5cc(Cl)c(F)cc5F)n3)OC[C@]4(C)C(N)=O)cc2c1` [Example 183], the EC50 in test [1] was below 500 nM; in test [2], below 200 nM.

Regarding `COc1cc(C(=O)NC[C@](O)(c2cc3c(c(-c4ccc(F)c(Cl)c4Cl)n2)OC[C@]3(C)C(N)=O)C(F)(F)F)cc2cn(C3CC3)nc12` [Example 65], the values for the EC50 in test [1] and in test [2] were below 500 nM and below 200 nM, respectively.

As to `COc1cc(C(=O)NC[C@@](O)(c2ccccc2)c2cc3c(c(-c4cc(C(F)F)c(F)cc4F)n2)OC[C@]3(C)C(N)=O)cc2oc(C3CC3)nc12` [Example 299], the EC50 in test [1] is below 500 nM; in test [2], below 200 nM.

`C[C@]1(C(N)=O)COc2c1cc([C@@](O)(CNC(=O)c1cc(OCCO)c3nn(C4CC4)cc3c1)C1CC1)nc2-c1ccc(F)c(Cl)c1F` [Example 37]: the figures for the half-maximal effective concentration (EC50) in test [1] and in test [2] were above 500 nM and below 200 nM, respectively.

As to `COc1cc(C(=O)NC[C@@](O)(c2ccccc2)c2cc3c(c(-c4cccc(Cl)c4Cl)n2)OC[C@]3(C)C(N)=O)cc2cn(C3(F)CC3)nc12` [Example 262], the EC50 is below 500 nM in test [1] and below 200 nM in test [2].

Take `COc1cc(C(=O)NC[C@@](O)(c2ccccc2)c2cc3c(c(-c4cc(Cl)c(F)cc4F)n2)OC[C@]3(C)C(N)=O)cc2cc(Cl)cnc12` [Example 187]: the EC50 was below 500 nM in test [1] and below 200 nM in test [2].

As for `COc1cc(C(=O)NC[C@@](O)(c2ccccc2)c2cc3c(c(-c4cc(F)c(F)cc4F)n2)OC[C@]3(C)C(N)=O)cc2cn(C(F)F)nc12` [Example 172], the EC50 in test [1] is below 500 nM; in test [2], below 200 nM.

Regarding `COc1cc(C(=O)NCC(O)(c2cc3c(c(-c4cc(Cl)c(F)cc4F)n2)OC[C@]3(C)C(N)=O)c2cc(C(F)F)cs2)cc2cn(C3CC3)nc12` (stereo partly shown) [Example 468], the EC50 in test [1] is above 500 nM; in test [2], below 200 nM.
